# Where “and” joins values, the source holds several entries; their conditions need not be identical. Equal entries are not always repeated. Where two headings read alike, the source gives them in different places.
# Experiments:
# Crystal screening (XRPD) = format: physicochemical; conditions: 36 conditions
# Experimental: Crystal screening for each further characterized pantothenamide was performed by a commercial service (Crystal Pharmatech Co., Ltd.) under 36 conditions using a variety of crystallization methods, including liquid vapor diffusion, slow evaporation, slurry conversion and salt/co-crystal formation and solvents. X-ray power diffraction (XRPD) patterns were collected by Bruker X-ray powder diffractometers.
# [1] = tested on: P. falciparum T648M / T627A AcAS mutant gametocytes; format: cell-based, Plasmodium falciparum
# Experimental: (§1) Gametocyte viability assays on NF54-HGL parasites were performed using an adapted high-throughput protocol as previously described[15],[64]. In short, asexual blood-stage parasite cultures were set up at 1% parasitemia in a semi-automated shaker system at 5% hematocrit. From day four until day eight or nine, parasites were treated with 50 mM N-acetyl glucosamine to eliminate all asexual blood-stage parasites. Subsequently, gametocytes were isolated by a Percoll density gradient centrifugation. At day 11, gametocytes were seeded (5,000 per well) in 30 µl in white 384-well plates containing 30 µl of compounds diluted in medium (0.1% DMSO). After a 72-h incubation, 30 µl of ONE-Glo reagent (Promega) was added according to manufacturer’s protocol and luminescence was quantified using the BioTek Synergy 2 Plate reader. Values were normalized to DMSO- and epoxomicin or dihydroartemisinin-treated controls.
# [2] = tested on: P. falciparum NF54-HGL gametocytes; test: Gametocyte viability assay (72 h, luminescence); format: cell-based, Plasmodium falciparum; conditions: NF54-HGL
# Experimental: as §1
# [3] = tested on: P. falciparum Pf3D7^0087/N9; test: Single dose in vivo efficacy in humanized NSG mice; set-up: species or system Plasmodium falciparum
# Experimental: The effect of pantothenamides on P. falciparum Pf3D7^0087/N9 [66] in vivo was assessed in female NSG mice (NODscidIL2Rγ^null) at the Swiss Tropical and Public Health Institute (Basel, Switzerland) as described previously (Supplementary Table 30)[15],[67]. Briefly, humanized mice were engrafted daily with human erythrocyte suspensions from days -11 to day 6. […] On day 4, groups of n = 2 mice were treated with a single dose pantothenamides or chloroquine (50 mg/kg) by oral gavage. […] Serial dilutions were prepared in the same solvent to concentrations 50 times higher than the corresponding CAL and QC concentrations. The concentrations were calculated under consideration of purity and salt factor. The spiking of the CAL and QC sample were performed at room temperature.
# [4] = tested on: cryopreserved human primary hepatocytes; test: in vitro; conditions: human, hepatocytes
# Excerpt: Briefly, cryopreserved human primary hepatocytes were thawed and cultured as described above.
# [5] = tested on: P. falciparum NF54-HGL, dT648M, cT648M, cT627A asexual blood stages; test: Asexual drug-sensitivity of AcAS mutant parasites; format: cell-based, Plasmodium falciparum; set-up: key to asexual blood stages growth, dose-response: % growth; DMSO control = 100%, DHA/epoxomicin = no growth
# Experimental: Replication assays were performed using a SYBR Green method as described previously. Briefly, asynchronous parasites were diluted to 0.83% parasitemia, 3% hematocrit in 30 µl medium, and added to 30 µl of diluted compounds in medium (0.1% DMSO final concentration) in black 384-wells plates. After a 72-h incubation, 30 µl of SYBR Green diluted in lysis buffer was added according to the manufacturer’s protocol (Life Technologies). Fluorescence intensity was measured on a BioTek Synergy 2 Plate Reader after 1-h incubation and was normalized to a DMSO control (100% growth) and DHA- or epoxomicin-treatment (no growth). […] Parasite survival was assessed by flow cytometry on an Accuri C6 (BD Biosciences) with BD C6 Plus software using SYBR Green and MitoTracker Deep Red FM (Life Technologies) as nuclear stain and vital dye, respectively, and data were analyzed using FlowJo (10.5.0). […] Luminescence was measured after 72 h using the Renilla-Glo(R) Luciferase Assay System (Promega E2750) and the GlomAX® Discover Multimode Microplate Reader (Promega). The luminescence values were normalized to DMSO vehicle (100% growth) and 200 nM chloroquine-treated (no growth) samples as controls.
# The mutation found in selected drug-resistant parasites was verified by introducing the point mutations in AcAS (T648M and T627A) in NF54-HGL parasites using a CRISPR-Cas9 system as described previously. The oligonucleotides for the guide RNA and the donor template were cloned into a pDC2-based plasmid containing a Cas9 and guide cassette, using the BbsI and EcoRI/AatII restriction sites, respectively. Donor DNA was amplified by (overlap-extension) PCR amplification from genomic P. falciparum DNA and oligonucleotides for the guide RNAs were ordered (Sigma-Aldrich). The correct sequence and integration of both inserts were confirmed by Sanger Sequencing.
# [6] = cT627A, Log concentration (M) -7.5
# [7] = cT627A, Log concentration (M) -8
# [8] = cT627A, Log concentration (M) -8.5
# [9] = cT627A, Log concentration (M) -9
# [10] = cT627A, Log concentration (M) -9.5
# [11] = cT627A, Log concentration (M) -10
# [12] = cT648M, Log concentration (M) -6
# [13] = cT648M, Log concentration (M) -6.5
# [14] = cT648M, Log concentration (M) -7
# [15] = cT648M, Log concentration (M) -7.5
# [16] = cT648M, Log concentration (M) -8
# [17] = cT648M, Log concentration (M) -8.5
# [18] = cT648M, Log concentration (M) -9
# [19] = cT648M, Log concentration (M) -9.5
# [20] = cT648M, Log concentration (M) -10
# [21] = dT648M, Log concentration (M) -6
# [22] = dT648M, Log concentration (M) -6.5
# [23] = dT648M, Log concentration (M) -7
# [24] = dT648M, Log concentration (M) -7.5
# [25] = dT648M, Log concentration (M) -8
# [26] = dT648M, Log concentration (M) -8.5
# [27] = dT648M, Log concentration (M) -9
# [28] = dT648M, Log concentration (M) -9.5
# [29] = dT648M, Log concentration (M) -10
compound,measurement,setting,value
CC(CNC(=O)C(O)C(C)(C)CO)NC(=O)CCc1ccccc1F (stereo in doubt) [MMV689258],Crystalline,Crystal screening (XRPD),Yes
same,"gametocyte viability, dose-response","[1]; cT627A, Log concentration (M) -6",54.65 and 65.95 and 38.25
same,"gametocyte viability, dose-response","[1]; cT627A, Log concentration (M) -6.5",66.35 and 84.15 and 69.3
same,"gametocyte viability, dose-response","[1]; cT627A, Log concentration (M) -7",85 and 95.75 and 66.7
same,"gametocyte viability, dose-response",[1]; [6],95.85 and 91.8 and 94.3
same,"gametocyte viability, dose-response",[1]; [7],92.9 and 96.45 and 100.2
same,"gametocyte viability, dose-response",[1]; [8],84.65 and 95.2 and 101.25
same,"gametocyte viability, dose-response",[1]; [9],97.55 and 97.85 and 111.3
same,"gametocyte viability, dose-response",[1]; [10],87.2 and 101.95 and 102.75
same,"gametocyte viability, dose-response",[1]; [11],85.8 and 97.9 and 99.85
same,"gametocyte viability, dose-response",[1]; [12],103.9 and 89.5 and 90.75
same,"gametocyte viability, dose-response",[1]; [13],103.05 and 97.85 and 100.35
same,"gametocyte viability, dose-response",[1]; [14],99.3 and 92.85 and 107.7
same,"gametocyte viability, dose-response",[1]; [15],98.25 and 95.25 and 103.7
same,"gametocyte viability, dose-response",[1]; [16],84.9 and 96.6 and 106.6
same,"gametocyte viability, dose-response",[1]; [17],104.05 and 98.15 and 101
same,"gametocyte viability, dose-response",[1]; [18],97.2 and 88.65 and 97.7
same,"gametocyte viability, dose-response",[1]; [19],106.45 and 88.2 and 104.1
same,"gametocyte viability, dose-response",[1]; [20],102.75 and 101.9 and 108.55
same,"gametocyte viability, dose-response",[1]; [21],104.25
same,"gametocyte viability, dose-response",[1]; [22],95.5
same,"gametocyte viability, dose-response",[1]; [23],100.05
same,"gametocyte viability, dose-response",[1]; [24],101.95
same,"gametocyte viability, dose-response",[1]; [25],95.3
same,"gametocyte viability, dose-response",[1]; [26],102.85
same,"gametocyte viability, dose-response",[1]; [27],93.8
same,"gametocyte viability, dose-response",[1]; [28],107.4
same,"gametocyte viability, dose-response",[1]; [29],95.7
same,"gametocyte viability, dose-response",[2]; Log concentration (M) -8,82.05 and 46 and 45.3
same,"gametocyte viability, dose-response",[2]; Log concentration (M) -8.5,95.95 and 82.9 and 64.1
same,"gametocyte viability, dose-response",[2]; Log concentration (M) -9,97.75 and 94.05 and 92.15
same,"gametocyte viability, dose-response",[2]; Log concentration (M) -9.5,104.7 and 93.15 and 94.35
same,"gametocyte viability, dose-response",[2]; Log concentration (M) -10,106.25 and 112.55 and 90.95
same,Parasitemia,"[3]; day 5 post infection, 50 mg/kg p.o. on day 4, per mouse, 50 mg/kg",0.26 and 0.2
same,Parasitemia,"[3]; day 6 post infection, per mouse",0.15 and 0.1
same,Parasitemia,"[3]; day 7 post infection, per mouse",0.22 and 0.12
same,parasitemia outcome,"[3]; single 50 mg/kg oral gavage on day 4, over three days",not fully cleared
same,Human hepatocyte CLint,[4],0.8 µl/min/10^6 cells
same,"asexual blood stages growth, dose-response","[5]; NF54-HGL, Log concentration (M) -9",76.1 and 93.6 and 100.55
same,"asexual blood stages growth, dose-response","[5]; NF54-HGL, Log concentration (M) -9.5",86.25 and 83.5 and 106.05
same,"asexual blood stages growth, dose-response","[5]; NF54-HGL, Log concentration (M) -10",96.25 and 97.9 and 112.35
same,"asexual blood stages growth, dose-response",[5]; [6],91.7 and 68.35 and 87.5
same,"asexual blood stages growth, dose-response",[5]; [7],98.75 and 75.4 and 102
same,"asexual blood stages growth, dose-response",[5]; [8],98.95 and 109.7 and 103.8
same,"asexual blood stages growth, dose-response",[5]; [9],93.85 and 110.4 and 101.9
same,"asexual blood stages growth, dose-response",[5]; [10],95.15 and 100.65 and 102.3
same,"asexual blood stages growth, dose-response",[5]; [11],92.1 and 102.75
same,"asexual blood stages growth, dose-response",[5]; [12],85.3 and 76.95 and 95.6
same,"asexual blood stages growth, dose-response",[5]; [13],97.25 and 93 and 109.55
same,"asexual blood stages growth, dose-response",[5]; [14],112 and 98.45 and 99.1
same,"asexual blood stages growth, dose-response",[5]; [15],108.7 and 101 and 101.4
same,"asexual blood stages growth, dose-response",[5]; [16],108.05 and 99.35 and 97.85
same,"asexual blood stages growth, dose-response",[5]; [17],99.1 and 110.25 and 104.05
same,"asexual blood stages growth, dose-response",[5]; [18],88.2 and 96.6 and 106.85
same,"asexual blood stages growth, dose-response",[5]; [19],95.65 and 97.35 and 100.3
same,"asexual blood stages growth, dose-response",[5]; [20],86.35 and 97.9 and 99.6
same,"asexual blood stages growth, dose-response",[5]; [21],86.55
same,"asexual blood stages growth, dose-response",[5]; [22],89.25
same,"asexual blood stages growth, dose-response",[5]; [23],95.15
same,"asexual blood stages growth, dose-response",[5]; [24],99.65
same,"asexual blood stages growth, dose-response",[5]; [25],89.85
same,"asexual blood stages growth, dose-response",[5]; [26],92.65
same,"asexual blood stages growth, dose-response",[5]; [27],97.45
same,"asexual blood stages growth, dose-response",[5]; [28],97
same,"asexual blood stages growth, dose-response",[5]; [29],99.15
